The test system of series [1] is guinea pig. The experiment in a line: Effect on intranasal pressure and pituita (nasal) secretion after histamine aerosol, nasal administration. In kind it is in vivo. On the procedure: Animals were anesthetized with pentobarbital sodium (30 mg/kg, i.p.), and the compound of Reference Example B135 and solvent (0.1% sodium dihydrogenphosphate + 0.1% Tween 80) were administered into the both nasal cavities of guinea pig in 20 µL. The animals underwent the following test in about 0.5 hour.
The animals under anesthesia was held in the supine position. The neck was opened by median incision to expose the air tube. For maintenance of respiration, a polyethylene tube was inserted down into the air tube. Another polyethylene tube was inserted from the air tube incision into the rhinopharynx, and connected to a respirator via a silicon tube, through which the air was supplied into the nasal cavity at a volume of 4 mL/stroke and a frequency of 70 strokes/min. To prevent the air leak into the oral cavity, incisive canal was closed with Aron alfa A (trademark, Sankyo, Tokyo). The intranasal pressure was measured with a transducer connected to a side branch of the tube inserted into the nasal cavity. Histamine 1000 µg/mL solution was aerosolized using an ultrasonic nebulizer provided between the respirator and the tube in the nasal cavity, and the air was supplied into the nasal cavity for 3 minutes. After the histamine air supply, the intranasal pressure was depicted on an oscillograph for 15 minutes and the area under the curve was determined.
The pituita flowed out from the nasal cavity or pooled in the nasal cavity during the 15 minutes after histamine air supply was wiped with a cotton swab, which was weighed on an electronic weighing machine.
Where necessary, aerosolized physiological saline as a negative control was supplied into the nasal cavity, and the intranasal pressure and nasal secretion were measured.

Series [2] deals with T1, histamine H1 receptor (Cavia porcellus, UniProt P31389).
T1 construct: The cerebral cortex and lung tissues were removed and homogenized in phosphate buffer solution; from tissue; host or cells: cerebral cortex and lung crude membrane fractions of male Hartley guinea pigs
The experiment in a line: Penetrability into the brain: ex vivo binding test with tritium-labeled pyrilamine in brain and lung membrane fractions. Set-up: species or system guinea pigs. On the procedure: The compound of Reference Example B135 was orally administered (10 or 100 mg/kg) to male Hartley guinea pigs and, one hour later, the guinea pigs were slaughtered by decapitation. The cerebral cortex and lung tissues were removed and homogenized in phosphate buffer solution, followed by centrifugation at 4°C and 1000×g for 10 minutes. The supernatant was further centrifuged at 5000×g for 10 minutes to give crude membrane fractions. The membrane fractions were suspended in a buffer and, after adjusting the protein concentration to 1.0 mg/mL, subjected to binding test with tritium-labeled pyrilamine (2 nM). The inhibitory action on ex vivo binding test measured specific binding of pyrilamine in the brain and lung membrane fractions was calculated and used as an index of selectivity to peripheral histamine H1 receptor in the body upon oral administration of the agent.

Series [3] relates to Male Hartley guinea pigs. The series can be described thus: Effect on histamine-induced increases in microvascular permeability in skin in guinea pigs. It is filed as in vivo. The conditions noted are these: Cavia porcellus; 3 mg/kg oral administration 1 hour before histamine; guinea pig skin. Here is the method:
Male Hartley guinea pigs weighing about 500 g were used. After the dorsal hair was shaved under ether anesthesia, 1 ml of a 2.5% pontamine sky blue solution was injected intravenously, and then 0.1 ml of histamine at 3 µg/ml was injected intradermally into 2 sites (left and right) in the back. Thirty minutes after the injection of histamine, animals were fainted by knocking in the head, decapitated and killed by bleeding, after which the skin of the back was removed. The long and short diameters (mm) of each blue spot were measured and multiplied; the mean product was taken as the vascular permeability index. Test compounds were suspended in a 5% gum arabic solution and orally administered in a volume of 0.2 ml/100 g body weight at 1 hour before histamine administration. Animals in the control group received the same volume of a 5% gum arabic solution. Equation 1 Inhibition (%) of histamine-induced increases in microvascular permeability in skin = 100 × (1-vascular permeability index in the presence of drug/vascular permeability index in control group) [formula]

[4] abbreviates: 0.1% solution, nasal, 20 µL, histamine 1000 µg/mL aerosol.
Where [5] appears, read: 1.0% solution, nasal, 20 µL, histamine 1000 µg/mL aerosol.

T1 sequence (P31389 whole entry): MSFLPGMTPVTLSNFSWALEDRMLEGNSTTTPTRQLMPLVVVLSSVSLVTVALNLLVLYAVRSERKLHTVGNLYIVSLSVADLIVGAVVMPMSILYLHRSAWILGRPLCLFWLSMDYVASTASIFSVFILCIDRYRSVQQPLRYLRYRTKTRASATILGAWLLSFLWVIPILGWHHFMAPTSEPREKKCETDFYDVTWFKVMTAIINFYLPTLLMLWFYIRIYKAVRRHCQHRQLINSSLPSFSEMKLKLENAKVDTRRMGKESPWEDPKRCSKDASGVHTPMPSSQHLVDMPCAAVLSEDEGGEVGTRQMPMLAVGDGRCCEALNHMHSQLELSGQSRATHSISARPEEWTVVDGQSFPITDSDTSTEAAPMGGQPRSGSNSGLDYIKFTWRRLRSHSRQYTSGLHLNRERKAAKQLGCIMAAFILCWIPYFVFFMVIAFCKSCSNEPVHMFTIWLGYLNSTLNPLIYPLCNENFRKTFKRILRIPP

What is called inhibition in vivo is the drop in the measured response relative to a control, in per cent. Low readings indicate a weak effect, high ones a strong effect. As for `CC(C)(C(=O)O)c1cn2nc(NCCCN3CCC(OC(c4ccccc4)c4ccccc4)CC3)ccc2n1.O.O` [Reference Example B135, 2-[6-[3-[4-(diphenylmethoxy)piperidino]-propylamino]imidazo[1,2-b]pyridazin-2-yl]-2-methylpropionic acid dihydrate], in series [1] (setting [4]), the “percent inhibition of increase in intranasal pressure by nasal administration of 0.1% solution” value is on record as 70% and the “percent inhibition of nasal secretion by nasal administration of 0.1% solution” value is on record as 72%. In addition, in series [1] (setting [5]), the “percent inhibition of increase in intranasal pressure by nasal administration of 1.0% solution” value is recorded as 62% and the “percent inhibition of nasal secretion by nasal administration of 1.0% solution” value is recorded as 78%. In addition, in series [1] (conclusion from Tables 3 and 4), the “increase in the intranasal pressure and nasal secretion” value is “reduced increase in the intranasal pressure and nasal secretion”. The “penetrability into the brain” value in series [2] (conclusion from Tables 5 and 6) is given as “poor penetrability into the brain”. Also, in series [2] (oral administration of 10 mg/kg, one hour later, brain (cerebral cortex)), the “percent inhibition of specific binding of membrane fraction pyrilamine in brain” value is -2.9%. Further, the “percent inhibition of specific binding of pyrilamine in lung membrane fraction” value in series [2] (oral administration of 10 mg/kg, one hour later) turned out to be 95%. Moreover, the “percent inhibition of specific binding of pyrilamine in brain membrane fraction” value in series [2] (oral administration of 100 mg/kg, one hour later, brain (cerebral cortex)) came to 44%. Also, the “percent inhibition of specific binding of pyrilamine in lung membrane fraction” value in series [2] (oral administration of 100 mg/kg, one hour later) worked out at 95%. In series [3], the inhibition in vivo at 3 mg/kg was determined as 91%.

Source of the values: patent EP1243271A1, “NASAL DROPS CONTAINING FUSED PYRIDAZINE DERIVATIVES” (Takeda Chemical Industries, Ltd., priority 1999, dated 2001).
